Results: PubChem BioAssay (NCI)
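Method: 48-hour compound exposure of cells in 96-well plates, five concentrations, linear interpolation of endpoints. At the TGI there is no net growth.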

Tests used:
Assay in all cases: NCI tumour cell line growth inhibition, 48 h
[1] = system: DLD-1 colon
[2] = system: DMS 273 small cell lung
[3] = system: LXFL 529 NSCLC
[4] = system: M19-MEL melanoma
[5] = system: DMS 114 small cell lung
[6] = system: RXF-631 renal
[7] = system: P388 leukemia
[8] = system: P388/ADR leukemia
[9] = system: XF 498 CNS
[10] = system: SN12K1 renal

| SMILES | TGI [1] [µM] | TGI [2] [µM] | TGI [3] [µM] | TGI [4] [µM] | TGI [5] [µM] | TGI [6] [µM] | TGI [7] [µM] | TGI [8] [µM] | TGI [9] [µM] | TGI [10] [µM] |
| --- | --- | --- | --- | --- | --- | --- | --- | --- | --- | --- |
| CSc1nc(-c2ccccc2)nc(=[N+]2CCOCC2)s1 | > 100 | > 100 | > 100 | > 100 |  |  |  |  |  |  |
| Cc1cc(OCC(O)CO)ccc1Cl (stereo unspecified) | > 100 | > 100 | > 100 | > 100 | > 100 | > 100 |  |  |  |  |
| O=[N+]([O-])c1ccc(Nc2cccc3c2[nH]c2c(-c4ccccc4)nccc23)c([N+](=O)[O-])c1 | > 100 | > 100 |  | > 100 | > 100 |  | > 69.2 | > 100 | > 100 |  |
| O=S(=O)(O)c1cc(N=[N+]([O-])c2ccc(N=Nc3ccccc3)cc2S(=O)(=O)O)ccc1/C=C/c1ccc(N=[N+]([O-])c2ccc(N=Nc3ccccc3)cc2S(=O)(=O)O)cc1S(=O)(=O)O | > 100 | > 100 |  | > 100 | > 100 |  | > 100 |  | > 100 | > 31.6 |
| Nc1ncc2c(n1)-c1ccccc1OC2 | > 100 | > 100 |  | > 100 | > 100 |  | > 100 |  | > 100 | > 100 |
| Cc1ccc(S(=O)(=O)N/N=C\c2c3ccccc3[n+](C)c3ccccc23)cc1 | > 100 | 64.7 |  | > 100 | > 100 |  |  |  |  |  |
| CC(C)(C)CC(C)(C)NCC(O)COc1ccc(C(C)(C)c2ccc(OCC(O)CNC(C)(C)CC(C)(C)C)cc2)cc1 (stereo unspecified) | 2.06 | 2.28 | 1.3 | 2.88 | 3.21 |  |  |  | 3.02 |  |
| OC(CCl)CN1CC[N+]2(CC1)CC[N+]1(CCN(CC(O)CCl)CC1)CC2 (stereo unspecified) |  | > 50 | > 50 | > 50 | > 50 |  |  |  | > 50 |  |
